Assay results from US20080227855A1, “Solid Dispersion of Hydrophobic Bioactive” (priority 2005, published 2008).
Each block holds one compound with its values, some of them ahead of it.

Tests used:
[1] = XRPD analysis of crystallinity (amorphous stability) of spray dried dispersions on storage; format: physicochemical; details: stored at room temperature under vacuum (FIG. 8)
Experimental: All dispersions were spray dried using a Niro SD spray dryer connected to a nitrogen generator.
Solutions for dispersions were prepared by dissolving griseofulvin, a major excipient (PVP) and a minor excipient in an acetone water co-solvent system. To ensure homogeneity, the dispersions were allowed to mix for eight hours before the dispersion was spray dried using a Niro SD system under nitrogen conditions with an inlet temperature of 65° C. and an outlet temperature of 45° C. The feed rate was around 15% of maximum and the nitrogen flow rates were 20 kg/hr and 2 kg/hr for the drying and atomization rates respectively.
The samples were then stored under constant vacuum for 24 hours to allow for the removal of solvent before being transferred to the required conditions.
A Philips PW37010 X-ray Powder Diffractometer (Philips, Cambridge, UK) was used to analyse the samples for crystallization, with a sample XRPD scans shown in FIGS. 1a and 1b.
This was compressed to produce a flat surface before being loaded into the XRPD. […]
Pure crystalline griseofulvin or flavanone was subjected to the same methodology to produce a standard XRPD scan. A number of peaks were selected from each of these standards to produce a 100% crystalline value expressed as X-ray count/°2Θ these were then compared with the area under the peaks of the dispersions to produce percentage crystallinity values.

[2] = indomethacin with PVP, hydrogen bonding; cited from earlier work
[3] = griseofulvin dispersed in PVP (high Tg polymer); cited from earlier work
[4] = Dissolution, USP paddle method; format: physicochemical; details: pH6.8 buffer at 37 C, 100 rpm (FIG. 11)
Experimental: Dispersions were prepared as described above containing Gris:PVP 1:1; Gris:PHPMA:PVP 2.5:1.25:1.25, and compared to Gris spray dried without polymer and crystalline Gris. Dissolution data were prepared by placing a small amount of sample in a hard gelatine capsule and following dissolution in pH6.8 buffer at 37 C (with added surfactant if dispersion was required), using a USP paddle method.

crystallinity by XRPD ([1]; Flavanone dispersed with PVP): near completely crystalline
crystallinity by XRPD ([1]; Flavanone dispersed with a combination of PHPMA and PVP): only partial crystallinity
SMILES: O=C1CC(c2ccccc2)Oc2ccccc21 (centres unmarked) [Flavanone]

SMILES: COc1ccc2c(c1)c(CC(=O)O)c(C)n2C(=O)c1ccc(Cl)cc1 [Indomethacin]
amorphous stability [2]: above that expected on the basis of glass transition temperature alone

dissolution [4]: slow dissolution
SMILES: COC1=CC(=O)C[C@@H](C)[C@]12Oc1c(Cl)c(OC)cc(OC)c1C2=O [griseofulvin, Griseofulvin]
crystallisation of drug dispersed in polymer [3]: relatively rapid crystallisation
